{
  "source": "patent US6461650B1",
  "about": "“Preparation for supplementing a beverage and method for enriching a beverage in calcium and magnesium” (Institut National de la Recherche Agronomique, priority 1998, dated 2002)",
  "origin": "cited, not measured here",
  "test_system": "rats",
  "conditions": "incorporated in the diet",
  "data": [
    {"substance": "inulin", "values": [
      {"measurement": "digestive assimilation of calcium and magnesium", "result": "increase the digestive assimilation of calcium and magnesium"}
    ]}
  ]
}
